# Test system: B/C10ME fibrosarcoma
# Test: Tumor formation and GCV treatment, B/C10ME fibrosarcoma in BALB/c mice
# Format: in vivo
# Details: 2×10^7 cells s.c.; GCV 100 mg/kg daily from day 21, tumor diameter about 2 cm
# Description: Tumor Formation. Confluent cultures of B/C10ME clones were harvested with trypsin-EDTA (Gibco/BRL) and washed three times in PBS. Approximately 2×10^7 viable cells were resuspended in […] of PBS. Six- to eight-week-old BALB/c mice obtained from Jackson Laboratory were subcutaneously injected with an 18-gauge needle in their right flank. Tumors were palpable within 12 days of inoculation and bi-perpendicular measurements were taken of the progressively growing tumor daily. Tumor growth was monitored by measurement of the larger and smaller diameters. At the indicated times post-injection, mice were injected with GCV daily at a dosage of 100 mg/kg of body weight for about 10 days. Tumors were judged to have regressed after losing both measurability and palpability. For each retroviral construct, multiple injections of 2 to 3 independently derived transduced clonal cell lines were performed.
# Complete Eradication of Tumors in G1NaGrpTk Transduced Cells. To directly compare the therapeutic efficacy of the G1NaGrpTk vector with G1TkSvNa, B/C10ME clones transduced with the respective retroviral constructs were injected subcutaneously at a dose of 2×10^7 cells per BALB/c mouse. As controls, the parental, non-transduced cells were also injected. Tumors were palpable after 12 days of injection. At day 21, when the average tumor diameter reached about 2 cm, GCV was administered. […]
smiles,measurement,value
"Nc1nc(O)c2ncn(COC(CO)CO)c2n1 [GCV, ganciclovir]",tumor growth following GCV treatment,tumors continued to grow at various rates
